Source: paper PMC6678097, “Machilin A Inhibits Tumor Growth and Macrophage M2 Polarization Through the Reduction of Lactic Acid” (Cancers, 2019)

Experiments:
[1] = molecular target: T1, purified recombinant LDHA (Homo sapiens, UniProt P00338); assay: In vitro LDH activity assay with purified recombinant LDHA; assay type: biochemical; settings: up to a concentration of 1 mM
T1 construct: made in house
Experimental: A purification of recombinant LDHA was performed as described previously. LDH activity was determined by measuring the decrease of absorbance at 340 nm due to the oxidation of NADH in 20 mM HEPES-K^+, 0.05% bovine serum albumin (BSA), 20 μM NADH, and 2 mM pyruvate (Sigma-Aldrich, St. Louis, MO, USA) at a pH of 7.2 using a spectrofluorometer (Spectramax M2, Molecular Devices, San Jose, CA, USA; excitation 340 nm; emission 460 nm), as described previously. Ten nanograms of recombinant LDHA protein were used in the in vitro LDH activity assay. One microgram of total protein from cell or tissue lysates was used for intracellular or in vivo LDH assays.

[2] = molecular target: T2, purified recombinant human LDHA (rhLDHA) (Homo sapiens, UniProt P00338); assay: NADH binding assay (LDHA binding to Cibacron Blue 3GA agarose); settings: machilin A 10 and 100 μM; NADH positive control
T2 construct: made in house
Experimental: An NADH binding assay was performed as described previously. The NADH binding ability of LDHA was determined by measuring the affinity of LDHA to agarose-immobilized Cibacron Blue 3GA, which resembles NADH. Then, 400 ng of purified recombinant human LDHA (rhLDHA) was incubated with NADH or MA, followed by incubation with 30 µL of Cibacron Blue agarose at 4 °C for 2 h. After a washing step with 20 mM Tris-HCl (pH 8.6), LDHA bound to beads was eluted in PBS using a sodium dodecyl sulfate (SDS) gel running buffer and was then subjected to–SDS-polyacrylamide gel electrophoresis (SDS-PAGE) and western blotting. Standardized amounts of protein were used in each reaction.

LDHA [3] = molecular target: LDHA (Homo sapiens, UniProt P00338); assay: Isothermal titration calorimetry (ITC) of LDHA and NADH; design: Full-length LDHA (residues 1–331) was obtained from cDNA by polymerase chain reaction (PCR); inferred from pET-28a vector and Ni-NTA purification; made in house; host or cells: E. coli BL21 (DE3); settings: 25 °C, read-out: apparent KD of binding to LDHA
Experimental: compounds. The acquisition time was 1.704 sec, relaxation delay was 1.5 sec and 128 transient were collected. Lactate was quantified using Chenomx NMR Suite 7.1 professional with the Chenomx 600 MHz library database (Chenomx Inc., Edmonton, Alberta, Canada, ).
1.4. Isothermal Titration Calorimetry
Isothermal titration calorimetry (ITC) measurements were carried out using MicroCal auto_iTC200 (GE healthcare, Chicago, IL, USA) at 25 °C. The purified LDHA protein was dialyzed in buffer containing 50 mM Tris-HCl (pH 8.0) and 200 mM NaCl at a concentration of 0.1 mM. NADH was solubilized in the same buffer at concentrations of 1 to 2 mM. The NADH was titrated into the LDHA solution onto an ITC200 microcalorimeter cell. The raw data were integrated and normalized using MicroCal Origin 7.0 software (GE healthcare). The determined binding affinity (KA) and enthalpy changes (ΔH) values were used to calculate ΔS from the standard thermodynamic equation.
For generation of bone marrow-derived macrophage (BMDM), bone marrow cells were extracted from C57BL/6 mice by surgery, and treated with M-CSF (10ng/ml) for 7days. BMDM cells were incubated with the indicated concentration of culture media with MA and lactate or not. The cells were washed with phosphate buffered saline (PBS) and fixed in 3.7% formaldehyde in PBS for 1h. […]

LDHA [4] = system: LDHA; design: method as in PMID 30850682; settings: through reducing its binding to substrate, pyruvate; cited from earlier work

## c1ccc2c(c1)OCO2 [1,3-benzodioxole, reference compound]
[1]
  effect on LDHA activity: did not affect LDHA activity

## NC(=O)C1=CN(C2OC(COP(=O)(O)OP(=O)(O)OCC3OC(n4cnc5c(N)ncnc54)C(O)C3O)C(O)C2O)C=CC1 (centres unmarked) [NADH, 1,4-dihydronicotinamide adenine dinucleotide, reference compound]
[2]
  LDHA binding to Cibacron Blue Agarose beads (NADH mimic): prohibited LDHA binding
LDHA [3]
  Kd: 10 µM

## FC(F)(F)c1ccc([Se]c2ccccc2)cc1 [PSTMB, 1-(phenylseleno)-4-(trifluoromethyl)benzene]
LDHA [4]
  effect on LDHA activity: inhibited LDHA activity

## OCc1ccc2c(c1)OCO2 [piperonyl alcohol, reference compound]
[1]
  effect on LDHA activity: did not affect LDHA activity
